Laboratory results as given in patent publication US12037372B2, “Bioactive peptides derived from snakes” (Universiteit Leiden, priority 2018, dated 2024).
Where “and” joins values, the source holds several entries; their conditions need not be identical. Equal values may be shown once.

Key:
[1] = tested on: MDR S. aureus (LUH 14616), MRSA; test: Bactericidal activity of peptides (in vitro killing assay); type: cell-based, Staphylococcus aureus; conditions: MDR S. aureus LUH 14616; 2-hour treatment; 50% v/v human plasma; lowest concentration killing ≥99.9%; median (range)
Method: (§1) Enterococcus faecium (LUH 15122), Staphylococcus aureus (LUH 14616), Klebsiella pneumoniae (LUH 15104), Acinetobacter baumannii (RUH 875), Pseudomonas aeruginosa (LUH 15103), Enterobacter cloacae (LUH 15114) and Escherichia coli (LUH 15117) were used. Prior to experimentation the bacteria were taken from a glycerol stock stored at −80° C. and cultured overnight on sheep blood agar plates at 37° C. On the day of experimentation the bacteria were cultured in tryptic soy broth (TSB; Oxoid) for 2.5 hours at 37° C. and 200 rpm to a mid-logarithmic phase. The bacterial suspension was washed in phosphate buffered saline (PBS; pH 7.4), centrifuged for 10 minutes at 3000 rpm, and resuspended in PBS to the desired concentration, as determined by measuring the absorbance at 600 nm.
(§2) As a control the bacteria were also incubated in PBS with either 50% plasma or 50% urine without peptide. The plate was incubated for 2 hours at 37° C. and 200 rpm. After incubation the number of viable bacteria was determined microbiologically by plating the samples and a 10-times dilution series in PBS on diagnostic sensitivity test agar plates (DST; Sigma). The DST plates were incubated overnight at 37° C. Results were expressed as lethal concentration 99.9, or LC99.9, which represents the lowest concentration of peptide that killed 99.9% of the bacteria within 2 hours of incubation.

[2] = tested on: MDR P. aeruginosa (LUH 15103); test: as above; type: cell-based, Pseudomonas aeruginosa; conditions: 2-hour treatment, 50% v/v human plasma, median (range)
Method: as §1, §2

[3] = tested on: multidrug resistant strain Acinetobacter baumannii RUH875; test: as above; type: cell-based; conditions: 50% (v/v) human plasma, 2 hours
Method: as §1, §2

human neutrophils = test: Neutrophil migration assay; type: cell-based; conditions: 3.2 μM peptide
Method: Heparinized blood was collected from healthy human volunteers. Next, 10 ml of blood were mixed to 15 ml of PBS in a tube. Underneath the diluted blood, 10 ml of Ficoll (Pharmacy, LUMC) were added. The tube was spun at 1800 rpm for 20 minutes without brake. The supernatant was removed and 40 ml of erythrocyte lysis buffer (0.1 mM EDTA, 0.18 M NH4Cl, 10 mM KHCO3) were added to the pellet. This mixture was incubated at room temperature until erythrocyte lysis was evident. The tube was centrifuged at 1200 rpm for 10 minutes, the supernatant was discarded. The pellet was washed again with PBS the same way. The pellet was resuspended in RPMI 1640 medium and the cells were counted with a counting chamber. The cells were diluted to 2×10^6 cells/ml of RPMI 1640. The inserts with a 3.0 μm pore size in a 12-well plate (HTS transwell; Costar) were blocked with 400 μl of PBS with 0.1% w/v BSA for 10 minutes at room temperature after which the BSA solution was discarded. The 2×10^6 cells/ml suspension was diluted with RPMI to add 400 μl of a 2×10^5 cells/ml suspension to the inserts. […] In the lower compartment 1 ml of the chemoattractant was added. […] Results were expressed as the percentage of migrated neutrophils compared to the positive FMLP control, and corrected for the negative control.

Row | Substance | LC99.9 (μM) MRSA in 50% plasma [1] | LC99.9 (μM) MDR P. aeruginosa in 50% plasma [2] | LC99.9 (μM) A. baumannii ([3]; Table 5) | LC99.9 (μM) A. baumannii ([3]; Table 6) | migrated neutrophils (human neutrophils)
1 | AREKSFLQKMKVILQLSSQDQIQAF [SP20] | >102.4 µM | >102.4 µM |  |  | 
2 | DQVERGNFAKDGSKARVKKSLTKWVKFLKKIIAKLGRPLIGF [SP22] | 102.4 µM | 51.2 µM |  |  | 
3 | FFRKVKKGVHRYFKKNKFYIAATI [SP27-68] |  |  | 12.8 µM |  | 
4 | FKKFFRKVKKGVHRYFKKNKFYIA [SP27-65] |  |  | 1.6 µM |  | 
5 | FRKVKKGVHRYFKKNKFYIAATIP [SP27-69] |  |  | 25.6 µM |  | 
6 | KFFRKVKKGVHRYFKKNKFYIAAT [SP27-67] |  |  | 3.2 µM |  | 
7 | KKFFRKVKKGVHRYFKKNKFYIAA [SP27-66] |  |  | 1.6 µM |  | 
8 | KRFKKFFRKVKKGVHRYFKKNKFY [SP27-63] |  |  | 0.4 µM | 0.4 µM | 
9 | KVKKGVHRYFKKNKFYIAATIPYY [SP27-71] |  |  | 12.8 µM |  | 
10 | KRFAGFFQFVIGVSFHF [SP21] | >102.4 µM | >102.4 µM |  |  | 
11 | KRFAGFFQFVVGVSFRF [SP33] | >102.4 µM | >102.4 µM |  |  | 
12 | KRFKDFFHRIRDGVRDFFRNNHFVCGVNFRF [SP17] | >102.4 µM | >102.4 µM |  |  | 
13 | KRFKKFFKKAKKSVKKRLKKFFNKTRVIGVSIPF [SP14] | 12.8 µM | 0.4 µM |  |  | 
14 | KRFKKFFKKIKNGIKTFIKKTQMAIGSHFRW [SP30] | 51.2 µM | 2.4 (1.6-3.2) μM |  |  | 
15 | KRFKKFFKKIKNSVKKRVKKFFKKPRVIGVSIPF [SP23] | 4.8 (3.2-6.4) μM | 0.2 µM |  |  | 
16 | KRFKKFFKKIKTGIKKVIKKTKQAIASHFRW [SP18] | > 102.4 µM and 102.4 µM | 0.8 µM |  |  | 
17 | KRFKKFFKKLKNSVKKRVKKFFRKPRVIGVTFPF [SP3] | 3.2 µM | 0.8 µM |  |  | 
18 | KRFKKFFKKLKNSVRKCAKKFFKKLRVIRVSIPF [SP24] | 6.4 µM | 1.6 µM |  |  | 
19 | KRFKKFFKKVKKSVKKRLKKIFKKPIVIGVSIPF [SP25] | 12.8 µM | 0.4 µM |  |  | 
20 | KRFKKFFKKVKKSVKKRLKKIFKKPMVIGVSIPF [SP7] | 38.4 (25.6-51.2) μM | 0.8 µM |  |  | 

Row | Substance | LC99.9 (μM) MRSA in 50% plasma [1] | LC99.9 (μM) MDR P. aeruginosa in 50% plasma [2] | LC99.9 (μM) A. baumannii ([3]; Table 5) | LC99.9 (μM) A. baumannii ([3]; Table 6) | migrated neutrophils (human neutrophils)
21 | KRFKKFFKKVKKSVKKRLKKIFKKPMVIGVTFPF [SP9] | 51.2 (25.6-51.2) μM | 1.6 µM |  |  | 
22 | KRFKKFFKKVKKSVKKRLKKIFKKPMVIGVTIPF [SP6] | 57.6 (12.8-102.4) μM | 0.4 µM |  |  | 
23 | KRFKKFFMKLKKSVKKRVMKFFKKPMVIGVTFPF [SP12] | 25.6 (12.8->102.4) μM | 3.2 µM |  |  | 
24 | KRFKKFFRKIKKGFRKIFKKTKIFIGGTIPI [SP15] | 12.8 µM | 0.8 µM |  |  | 
25 | KRFKKFFRKLKKSVKKRVKKFFKKPRVIGVTIPF [SP11] | 3.2 µM | 0.4 µM |  |  | 
26 | KRFKKFLKKLKKSVKKHVKEFFKKPRVIGV [SP35] | 51.2 µM | 1.6 µM |  |  | 
27 | KRFKNFFKKIRDGIHEFIHNNRFVIGVNFRF [SP29] | >102.4 µM | 51.2 µM |  |  | 
28 | KRFKNFFKRVRDGIRDFFRKNHIVIGVNFRF [SP31] | 102.4 µM | 25.6 µM |  |  | 
29 | KRFLRLVVFKKLKKGLRKLFKKKKIVTGHVTS [SP28] | 51.2 µM | 6.4 µM |  |  | 
30 | KRFLRVFKKLKRGIRKLFKKKKIVTGPLTS [SP19] | >102.4 µM | 12.8 µM |  |  | 
31 | KRFLRVFRKLKKGLKKLFKRKKVVTGYVTA [SP32] | 25.6 µM | 12.8 µM |  |  | 
32 | KRFRKFFKRLLKSVRRAVKKFRKKPRLIGLSTLL [SP8] | 25.6 µM | 1.6 µM |  |  | 
33 | KRFTFYKKVKKNVENLLNKFFKKLRVIGDSIPF [SP26] | >102.4 µM | 12.8 µM |  |  | 
34 | KRFVGSFQLVVGVSFRF [SP34] | >102.4 µM | >102.4 µM |  |  | 
35 | KRVKRFKKFFKKVKKSVKKRLKKIFKKPMVIGVTIPF [SP2] | 25.6 µM | 0.4 µM |  |  | 
36 | LL-37 |  |  |  |  | 5.6%
37 | RFKKFFRKVKKGVHRYFKKNKFYI [SP27-64] |  |  | 0.8 µM |  | 
38 | RKVKKGVHRYFKKNKFYIAATIPY [SP27-70] |  |  | 12.8 µM |  | 
39 | RKFKKSFKKIRKWVKKATKIAGEVAVEILITKVILGSVGL [SP1] | >102.4 µM | 3.2 µM |  |  | 
40 | VKKGVHRYFKKNKFYIAATIPYYG [SP27-72] |  |  | 25.6 µM |  | 
